Experimental data reported in ChEMBL document CHEMBL1140353, “Structure-activity relationships of 1-alkyl-5-(3,4-dichlorophenyl)-5-{2-[3-(substituted)-1-azetidinyl]-ethyl}-2-piperidones. Part 2: Improving oral absorption” (Bioorg Med Chem Lett, 2005).

Assays:
Substance-P receptor = Substance-P receptor (Homo sapiens, UniProt P25103); test: Inhibitory concentration for Tachykinin 1 receptor of human IM9 cells; format: cell-based, IM-9
Substance-K receptor [1] = target: T1, Substance-K receptor (Homo sapiens, UniProt P21452); test: Inhibition of human Neurokinin 2 receptor
T1 sequence (P21452 whole entry): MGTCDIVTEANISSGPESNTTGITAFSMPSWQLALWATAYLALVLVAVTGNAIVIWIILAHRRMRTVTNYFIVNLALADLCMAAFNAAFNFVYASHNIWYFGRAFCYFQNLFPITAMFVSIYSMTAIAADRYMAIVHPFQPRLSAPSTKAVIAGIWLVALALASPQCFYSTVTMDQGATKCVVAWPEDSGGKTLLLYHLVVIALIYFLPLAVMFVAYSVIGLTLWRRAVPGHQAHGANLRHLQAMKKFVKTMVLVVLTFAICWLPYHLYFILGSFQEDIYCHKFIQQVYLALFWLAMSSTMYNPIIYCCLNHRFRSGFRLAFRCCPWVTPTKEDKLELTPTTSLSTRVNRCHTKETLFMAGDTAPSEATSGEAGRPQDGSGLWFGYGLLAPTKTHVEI

[2] = Oral absorption of 20 mg/kg tested in rat; format: ADME, organism-based; parameters: dose 20 mg/kg; conditions: in vivo, read-out: Absorption
[3] = Half life in human microsomal liver cells; format: ADME; conditions: liver microsomes
Homo sapiens [4] = species on record: Homo sapiens; test: Ratio of apical basolateral (A-B) and basolateral apical (B-A) determined by Caco-2 assay in human (ER=1); format: ADME
Substance-K receptor [5] = target: T2, Substance-K receptor (Oryctolagus cuniculus, UniProt P79218); test: pA2 for NK2 receptor of rabbit pulmonary artery; format: functional; conditions: read-out: pA2 (converted)
T2 sequence (P79218 whole entry): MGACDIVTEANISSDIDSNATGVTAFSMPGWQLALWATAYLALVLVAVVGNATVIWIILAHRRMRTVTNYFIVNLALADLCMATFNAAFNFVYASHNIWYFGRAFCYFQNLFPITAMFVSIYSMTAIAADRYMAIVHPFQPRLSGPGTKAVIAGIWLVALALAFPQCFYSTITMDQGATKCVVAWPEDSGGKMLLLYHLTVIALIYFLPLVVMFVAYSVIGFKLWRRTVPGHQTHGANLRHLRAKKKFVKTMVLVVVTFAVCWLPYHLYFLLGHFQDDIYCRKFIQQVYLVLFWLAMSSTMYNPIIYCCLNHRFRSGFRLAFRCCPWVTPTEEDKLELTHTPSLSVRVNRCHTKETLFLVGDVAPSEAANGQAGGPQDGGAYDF

[6] = Distribution coefficient (Log D) value at pH 7.4; format: physicochemical; conditions: octanol/water
Homo sapiens [7] = species on record: Homo sapiens; test: Ratio of apical basolateral (A-B) and basolateral apical (B-A) determined by Caco-2 assay in human (ER=2/12); format: ADME
Substance-K receptor [8] = target: T1, Substance-K receptor; test: pKi for human Neurokinin 2 receptor
Substance-K receptor [9] = target: T1, Substance-K receptor; test: pA2 for NK2 receptor of Human bladder; format: functional; conditions: read-out: pA2 (converted)
[10] = Oral absorption of 10 mg/kg tested in rat; format: ADME, organism-based; parameters: dose 10 mg/kg; conditions: in vivo, read-out: Absorption
Homo sapiens [11] = species on record: Homo sapiens; test: Ratio of apical basolateral (A-B) and basolateral apical (B-A) determined by Caco-2 assay in human; (ratio=1/18); format: ADME
[12] = In vivo clearance of […] mg/kg of compound tested in human; format: ADME, organism-based; conditions: 10 mg/kg
Homo sapiens [13] = species on record: Homo sapiens; test: Ratio of apical basolateral (A-B) and basolateral apical (B-A) determined by Caco-2 assay in human (ER=12/16); format: ADME
Homo sapiens [14] = species on record: Homo sapiens; test: Ratio of apical basolateral (A-B) and basolateral apical (B-A) determined by Caco-2 assay in human (ratio=2/3); format: ADME
Homo sapiens [15] = species on record: Homo sapiens; test: Ratio of apical basolateral (A-B) and basolateral apical (B-A) determined by Caco-2 assay in human; format: ADME
Homo sapiens [16] = species on record: Homo sapiens; test: Ratio of apical basolateral (A-B) and basolateral apical (B-A) determined by Caco-2 assay in human (ER<2); format: ADME
Homo sapiens [17] = species on record: Homo sapiens; test: Ratio of apical basolateral (A-B) and basolateral apical (B-A) determined by Caco-2 assay in human (ER=33/35); format: ADME
Homo sapiens [18] = species on record: Homo sapiens; test: Ratio of apical basolateral (A-B) and basolateral apical (B-A) determined by Caco-2 assay in human (ER=60/60); format: ADME
Homo sapiens [19] = species on record: Homo sapiens; test: Ratio of apical basolateral (A-B) and basolateral apical (B-A) determined by Caco-2 assay in human (ER=6/12); format: ADME
Homo sapiens [20] = species on record: Homo sapiens; test: Ratio of apical basolateral (A-B) and basolateral apical (B-A) determined by Caco-2 assay in human (ratio=12/18); format: ADME

Sequence of Substance-P receptor (P25103 whole entry): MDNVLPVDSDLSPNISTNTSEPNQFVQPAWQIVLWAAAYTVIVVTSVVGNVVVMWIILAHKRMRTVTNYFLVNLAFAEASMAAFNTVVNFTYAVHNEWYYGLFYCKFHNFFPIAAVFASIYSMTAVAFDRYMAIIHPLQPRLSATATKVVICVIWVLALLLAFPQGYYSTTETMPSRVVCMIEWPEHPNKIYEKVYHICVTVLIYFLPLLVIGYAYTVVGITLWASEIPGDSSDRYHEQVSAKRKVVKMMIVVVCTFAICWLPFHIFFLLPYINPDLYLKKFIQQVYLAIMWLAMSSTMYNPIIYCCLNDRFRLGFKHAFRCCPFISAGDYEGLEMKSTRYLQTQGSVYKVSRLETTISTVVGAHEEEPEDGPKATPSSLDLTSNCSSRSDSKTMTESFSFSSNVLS

Structure (SMILES) | IC50 (Substance-K receptor [1]) [nM] | half-life [3] [h] | Kb (Substance-K receptor [5]) [nM] | further results
O=C1CC[C@](CCN2CC(N3CCC(F)CC3)C2)(c2ccc(Cl)c(Cl)c2)CN1CC1CCC(F)(F)CC1 | 0.398 | > 2 |  | IC50 (Substance-P receptor): > 10000 nM; Fa [2]: > 80%; Caco-2 permeability (Homo sapiens [4]): > 35 % hr-1
O=C1CC[C@](CCN2CC(N3CCC(O)CC3)C2)(c2ccc(Cl)c(Cl)c2)CN1CC1CCC(F)(F)CC1 | 1.26 |  | 0.0794 | logD [6]: 2.2; Caco-2 permeability (Homo sapiens [7]): Permeable
NS(=O)(=O)N1CCN(C2CN(CC[C@]3(c4ccc(Cl)c(Cl)c4)CCC(=O)N(CC4CC4)C3)C2)CC1 | 3.98 | > 2 | 1.26 | Kb (Substance-K receptor [9]): 1.58 nM; Fa [10]: < 20%; logD [6]: 1.7; Caco-2 permeability (Homo sapiens [11]): Permeable; clearance [12]: < 3 mL/min/kg
O=C1CC[C@](CCN2CC(N3CCOCC3)C2)(c2ccc(Cl)c(Cl)c2)CN1CC1CCCCC1 | 0.794 | 0.233 | 1 | Caco-2 permeability (Homo sapiens [13]): Permeable
NC1CCN(C2CN(CC[C@]3(c4ccc(Cl)c(Cl)c4)CCC(=O)N(CC4CCC(F)(F)CC4)C3)C2)CC1 | 1 |  | 0.2 | Caco-2 permeability (Homo sapiens [15]): < 1 % hr-1; logD [6]: 0.1
O=C1CC[C@](CCN2CC(N3CCOCC3)C2)(c2ccc(Cl)c(Cl)c2)CN1CC1CCC(F)(F)CC1 | 7.94 | 1.33 | 1.26 | Caco-2 permeability (Homo sapiens [17]): Permeable
O=C1CC[C@](CCN2CC(N3CCC(F)CC3)C2)(c2ccc(Cl)c(Cl)c2)CN1C1(C2CC2)CCCC1 |  | 0.0333 |  | Caco-2 permeability (Homo sapiens [18]): Permeable; pKi (Substance-K receptor [8]): 10
O=C1CCN(C2CN(CC[C@]3(c4ccc(Cl)c(Cl)c4)CCC(=O)N(CC4CCC(F)(F)CC4)C3)C2)CC1 | 3.16 |  | 0.2 | 

Second part, led by results:

IC50 (Substance-K receptor [1]) [nM] | half-life [3] [h] | Kb (Substance-K receptor [5]) [nM] | Structure (SMILES) | further results
 | < 0.0167 | 0.251 | O=C1CC[C@](CCN2CC(N3CCOCC3)C2)(c2ccc(Cl)c(Cl)c2)CN1C1(C2CC2)CCCC1 | pKi (Substance-K receptor [8]): 9.5
6.31 |  | 2 | NC1CCN(C2CN(CC[C@]3(c4ccc(Cl)c(Cl)c4)CCC(=O)N(CC4CC4)C3)C2)CC1 | Caco-2 permeability (Homo sapiens [14]): Permeable
7.94 | < 0.167 | 3.16 | CS(=O)(=O)N1CCN(C2CN(CC[C@]3(c4ccc(Cl)c(Cl)c4)CCC(=O)N(CC4CC4)C3)C2)CC1 | Caco-2 permeability (Homo sapiens [16]): 10 % hr-1
15.8 |  | 10 | CN(C)S(=O)(=O)N1CCN(C2CN(CC[C@]3(c4ccc(Cl)c(Cl)c4)CCC(=O)N(CC4CC4)C3)C2)CC1 | 
10 | 1.42 | 2.51 | O=C1CC[C@](CCN2CC(N3CCC(F)CC3)C2)(c2ccc(Cl)c(Cl)c2)CN1CC1CC1 | Caco-2 permeability (Homo sapiens [18]): Permeable
1.26 |  | 1 | CS(=O)(=O)N1CCN(C2CN(CC[C@]3(c4ccc(Cl)c(Cl)c4)CCC(=O)N(CC4CCC(F)(F)CC4)C3)C2)CC1 | Caco-2 permeability (Homo sapiens [19]): Permeable
15.8 |  | 6.31 | CCOC1CCN(C2CN(CC[C@]3(c4ccc(Cl)c(Cl)c4)CCC(=O)N(CC4CC4)C3)C2)CC1 | Caco-2 permeability (Homo sapiens [4]): 34 % hr-1
2.51 |  | 1.58 | O=C1CC[C@](CCN2CC(N3CCC(F)CC3)C2)(c2ccc(Cl)c(Cl)c2)CN1CCC1CC1 | 
79.4 | 2 | 2 | O=C1CC[C@](CCN2CC(N3CCOCC3)C2)(c2ccc(Cl)c(Cl)c2)CN1CC1CC1 | logD [6]: 2.3; Caco-2 permeability (Homo sapiens [20]): Permeable
